In PubChem BioAssay AID179 (DTP/NCI, 2004):
Calls of active or inactive are those of the source.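 How the source made its calls: active means compounds giving half or more protection of infected cells from virus-caused growth loss, again on retest; inactive means the rest.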

Test system: CEM cells HIV-1 protection, formazan growth assay
Test: NCI AIDS Antiviral Assay
Settings: for IC50: measured here: growth of uninfected CEM cells
How it was run: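 Protection of CEM cells against HIV-1 measured as cell growth via soluble formazan read-out, with five concentrations tested on both infected and uninfected cells; failure to protect may reflect toxicity.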

Structure (SMILES) | EC50 | IC50 | outcome
COc1ccc(/C=C2/C[N+](C)(C)C/C(=C/c3ccc(OC)cc3)C2=O)cc1 | > 513 µM | 36.3 µM | 
COc1nc(=O)n(C2CC(F)C(CO)O2)cc1C (configuration not stated) | 79.4 µM | > 200 µM | 
CC(=O)CC(C)=O.CC(=O)CC(C)=O.[O]=[V] |  |  | inactive
CSCC1(O)CCCCC1 | > 200 µM | > 200 µM | 
CC(C)CC(=O)[O-].CC(C)CC(=O)[O-].N.N.N.N.[Co+3].[O-][Cl+3]([O-])([O-])[O-] |  |  | inactive
O=C(O)c1[nH]c2c(=O)[nH]c(=O)[nH]c2c1Br |  |  | inactive
CC(C)C1=CC23CCC4C(C)(C(=O)O)CCCC4(C)C2CC1C1C(=O)N(c2ccccc2N2C(=O)C4C5CC6C7(C)CCCC(C)(C(=O)O)C7CCC6(C=C5C(C)C)C4C2=O)C(=O)C13 (configuration not stated) | > 141 µM | 8.13 µM | 
Cc1ccc2oc3ccccc3c(=O)c2c1 | > 24.5 µM | > 24.5 µM | 
Cc1c2ncccc2cc2oc3ccccc3c(=O)c12 | > 200 µM | 10 µM | 
Cc1cc(O)c2c(c1)C(=O)c1cccc(O)c1C2=O | > 28.2 µM | > 28.2 µM | 
Nc1nc2cnc(COc3ccccc3)nc2c(=O)[nH]1 | > 200 µM | > 200 µM | 
NCCCc1nonc1C(=O)O | > 200 µM | > 200 µM | 
Cc1ccc(-c2cn3c(nc4ccccc43)c(C)n2)cc1 | > 200 µM | 66.1 µM | 
CC(C)C1COC(c2cccc(C3=N[C@@H](C(C)C)CO3)n2)=N1 (some centres not stated) | > 24 µM | > 24 µM | 
Cc1ccc(N=N/C(=N/NC(=O)c2cc(Cl)ccc2C(=O)c2ccccc2)c2ccc(N(CCC#N)CCC#N)cc2C)cc1 | > 200 µM | 11.7 µM | 
N=C(N)SCCNC[C@@H](O)[C@@H](O)CNCCSC(=N)N | > 537 µM | 437 µM | 
O=C(O)CNS(=O)(=O)c1ccc(NC(=O)c2ccc(F)cc2)cc1 |  |  | inactive
COC(=O)N/N=C(/CCN1CCCC1)CC(c1ccccc1)c1c(O)c2ccccc2oc1=O (configuration not stated) | > 89.1 µM | 83.2 µM | 
Cc1c2ccccc2nc(CS(C)=O)[n+]1[O-] (configuration not stated) | > 200 µM | > 200 µM | 
O=C(Nc1ccc2c(O)cc(S(=O)(=O)O)cc2c1)Nc1ccc2c(O)cc(S(=O)(=O)O)cc2c1 | 64.6 µM | 155 µM | 
CCOC(=O)c1ccc(Nc2nc3ccc(C(F)(F)F)cc3nc2C(=O)OCC)cc1 |  |  | inactive
CN1NC(c2ccccc2)=C(C#N)C(=O)CC1c1cccs1 (configuration not stated) | > 200 µM | > 200 µM | 

Structure (SMILES) | EC50 | IC50 | outcome
Cc1ccnc2c1C(=O)C(=O)C=C2N1CCCCC1 |  |  | inactive
S=P(Oc1cc(Cl)c(Cl)cc1Cl)(N1CCN(c2cccc(Cl)c2)CC1)N1CCN(c2cccc(Cl)c2)CC1 | > 11.2 µM | > 11.2 µM | 
CCOC(=O)c1ccc(CS(=O)(=O)c2ccc(C)cc2)c([N+](=O)[O-])c1 | > 100 µM | > 100 µM | 
CCOC(=O)c1cc(-c2ccccc2)c(OC)c(=O)nc1-c1ccccc1 | > 27.5 µM | > 27.5 µM | 
COC(=O)c1ccccc1/C=C1\Cc2c(C)c3c(c(C)c2C1=O)CCC3 |  |  | inactive
COc1cccc(C(=O)C2C(=O)N(C)CCc3ccccc32)c1OC (configuration not stated) | > 148 µM | > 148 µM | 
O=c1ccc2c(-c3ccccc3S(=O)(=O)O)c3ccc(O)c(O)c3oc-2c1O | 2.4 µM | > 200 µM | 
C=CCNc1nc2c(s1)C(=O)c1ccccc1C2=O | > 13.8 µM | 8.32 µM | 
O=C(Nn1c(-c2ccccc2)nc2ccccc2c1=O)c1ccccc1O | > 200 µM | 17.4 µM | 
CC(=O)OC1CCC2(C)C(=CCC3C2CCC2(C)C3CC3N(c4ccccc4)C32C(C)=O)C1 (configuration not stated) | 6.46 µM | 20 µM | 
CCOC(=O)C(=O)Nc1cc(Cl)c(Cl)cc1Cl | > 63.1 µM | > 63.1 µM | 
C/C(=N\NC(=O)c1ccncc1)c1cccc(/C(C)=N/NC(=O)c2ccncc2)n1.O=S(=O)([O-])[O-].[Fe+2] | > 200 µM | 16.2 µM | 
CN1C(=O)N/C(=C\c2ccc(S(=O)(=O)N/N=C/c3ccccc3)cc2)C1=O | > 200 µM | 5.25 µM | 
CC(=O)/C=C(\c1ccccc1)c1c(O)c2ccccc2oc1=O | > 200 µM | 141 µM | 
O=C1CCC2(c3ccc(Cl)cc3)Nc3ncncc3N12 (configuration not stated) | > 871 µM | 178 µM | 
Cc1cc(C)c2c(c1)CC1(Cc3cc(C)c(C)cc3C1=O)C2=O (configuration not stated) | > 100 µM | > 100 µM | 
NCCCNC(=O)c1csc(NC(=O)c2csc(NC(=O)CCCN)n2)n1 | > 437 µM | 174 µM | 
Cc1ccc(C)c(N2C(=O)C(=O)c3c(C)ccc(C)c32)c1 | > 200 µM | 33.1 µM | 
Oc1ccc(Cl)cc1Cc1ccccc1 | > 200 µM | 39.8 µM | 
Cc1nc(C(=O)O)c(C(=O)O)[nH]1 | > 200 µM | > 200 µM | 
COC1/C=C/OC2(C)Oc3c(C)c(O)c4c(O)c(c(/C=N/N5CCOCC5)c(O)c4c3C2=O)NC(=O)C(C)=C/C=C/C(C)C(O)C(C)C(O)C(C)C(OC(C)=O)C1C (configuration not stated) | > 200 µM | 35.5 µM | 
O=C1OC2C(O)COC2(O)C1(O)Cc1cc(O)c(O)c(Br)c1Br (configuration not stated) |  |  | inactive

Structure (SMILES) | EC50 | IC50 | outcome
C=C1CC(C)(Cn2c(N)nc3nc[nH]c3c2=O)OC1=O (configuration not stated) | > 200 µM | 117 µM | 
COC1/C=C/OC2(C)Oc3c(C)c(O)c4c(O)c(c(C=NN5CCCCCCCCCCCCCCC5)c(O)c4c3C2=O)NC(=O)/C(C)=C/C=C/C(C)C(O)C(C)C(O)C(C)C(OC(C)=O)C1C (configuration not stated) | > 200 µM | 3.98 µM | 
O=C(N/N=C\c1ccc([N+](=O)[O-])o1)c1ccncc1 | > 200 µM | 22.9 µM | 
COc1ccc2c(c1)c1cc(OC)ccc1n2CCCCOc1ccc(-c2c3ccccc3c(-c3ccc(OCCCCn4c5ccc(OC)cc5c5cc(OC)ccc54)cc3)c3ccccc23)cc1 | > 1.55 µM | > 1.55 µM | 
CCOC(=O)C1=CN=C2C(=O)N(c3ccccc3)N(C)C2(C)C1=N (configuration not stated) | > 200 µM | > 200 µM | 
O=c1onc(Nc2ccccc2)n1-c1ccccc1 | > 200 µM | 129 µM | 
O=C(Nc1cccc(Cl)c1)Nc1ccc[nH]c1=O | > 490 µM | 25.1 µM | 
CN(C)C=NCCN1CCOCC1 | > 200 µM | > 200 µM | 
Cc1cccc(C)c1NC(=O)/C(=N/NC(N)=S)C(C)C(=O)c1ccc(Cl)cc1 (configuration not stated) | > 44.7 µM | > 44.7 µM | 
O=C1NCC(c2ccccc2)(c2ccccc2)O1 | > 200 µM | 151 µM | 
Clc1ccc(C2SCc3nc4ccccc4n32)c(Cl)c1 (configuration not stated) |  |  | inactive
C=C1CC2(OC1=O)c1ccccc1C=Cc1ccccc12 | > 26.3 µM | 4.57 µM | 
CC(C)(C)OC(=O)C1=C(O)C(C(=O)OC(C)(C)C)C23CCCCC12C(C(=O)OC(C)(C)C)C(O)=C3C(=O)OC(C)(C)C (configuration not stated) |  |  | inactive
C=C(Br)CNCC(=C)Br | > 200 µM | 129 µM | 
CCC12CC(c3ccccc3)C(C(=O)N1)C(=O)N2 (configuration not stated) | > 200 µM | > 200 µM | 
Cc1nc2cc3[nH]c4ccccc4c(=O)c3cc2s1 | > 148 µM | > 148 µM | 
C=CCNC(=S)N/C=C(\C#N)c1nc2ccccc2s1 | > 200 µM | > 200 µM | 
N#CC(C(=O)CCC(=O)C(C#N)c1ccccc1)c1ccccc1 (configuration not stated) | > 398 µM | > 398 µM | 
OCC1C(CO)C2CC1C1N=NN(c3ccccc3)C21 (configuration not stated) | > 324 µM | > 324 µM | 
O=Cc1nc2ccccc2s1 |  |  | inactive
